Experiments:
FASN [1] = experiment: Western blot of TGFβ induced FASN expression in MRCS lung fibroblasts; type: cell-based, human; settings: TGFβ 10 ng/ml, Rapamycin 100 nM, Torin 200 nM, 24 hours
Description: (§1) Murine fibroblasts (AKR-2B) and human lung fibroblasts (MRCS) were transfected with either a nontargeting control siRNA (60 nmol/L) or with Smad2/3-targeting siRNA (60 nmol/L). After 72 hours of cultivation, the transient transfectants were stimulated in the absence or presence of 10 ng/ml TGFβ for 24 hours. Proteins were obtained from treated and control cells. Protein samples were Western blotted for FASN, pSmad2, pSmad3, and connective tissue growth factor (CTGF), and Western blotted for GAPDH as a loading control.
(§2) Murine fibroblasts (AKR-2B) and human lung fibroblasts (MRCS) were stimulated in the absence or presence of TGFβ (10 ng/ml) plus a PI3K inhibitor (LY294002; 10 μM), a MEK inhibitor (U0126; 10 μM), an AKT inhibitor (MK2206; 0.3 μM), a mTORC1 inhibitor (Rapamycin; 100 nM), or a mTORC1,2 inhibitor (Torin; 200 nM). Expression of pErk and pS6K/pS6K was determined at 1 and 6 hours post-stimulation while FASN, pSmad3, and GAPDH assessed at 24 hours. TGFβ induced FASN expression was abrogated in the presence of rapamycin or torin (FIGS. 3C and 3D).

FASN [2] = experiment: Western blot of TGFβ induced FASN expression in AKR-2B fibroblasts; type: cell-based, murine; settings: TGFβ 10 ng/ml, Rapamycin 100 nM, Torin 200 nM, 24 hours
Description: as §1, §2

[3] = Oxygen saturation (SpO2) in bleomycin challenged mice; type: in vivo; settings: 0.03, 0.3, or 3 mg/kg C75 every 4th day from day 14, room air, dose dependent
Description: Mice were challenged with bleomycin or saline for 25 days, and every 4th day, beginning 14 days following initial bleomycin insult, were treated with vehicle (methocel/0.1% DMSO) or with 0.03 mg/kg, 0.3 mg/kg, or 3 mg/kg C75. Oxygen saturation (SpO2) levels (determined on room air) were measured.
Bleomycin-induced fibrotic conditions caused reduced, time-dependent fluctuations in oxygen saturation, but inhibition of FASN activity with C75 stabilized lung gas exchange in a dose dependent manner (FIG. 7; *p-value<0.05, **p-value<0.01). Error bars reflect standard deviation from n=5 (control, BLM, 0.03 mg/kg C75), 7 (0.3 mg/kg C75), or 8 (3 mg/kg C75) animals.

[4] = Adenovirus-TGFβ model of pulmonary fibrosis; type: in vivo; settings: adenovirus-TGFβ1 mice; 3.0 mg/kg C75 every 4th day from day 21; blood oxygen days 21 and 35, hydroxyproline and qPCR day 39
Description: Mice were infected with 1×10^8 pfu adenovirus particles expressing control (GFP) or active TGFβ1 by tracheal instillation. On day 21 all animals began treatment every 4th day with either vehicle (Methocel/saline) or 3.0 mg/kg of C75. Peripheral blood oxygen determined on days 21 and 35 (FIG. 10A). Data reflect mean+/−SEM of n=8 and n=15 for adenovirus-GFP and adenovirus-TGFβ, respectively. *P<0.05. Mice were infected with 1×10^8 pfu adenovirus particles expressing control (GFP) or active TGFβ1 by tracheal instillation. On day 21 all animals began treatment every 4th day with either vehicle (Methocel/saline) or 3.0 mg/kg of C75. Mice were sacrificed on day 39 and processed for lung hydroxyproline content (FIG. 10B). Data reflect mean+/−SEM of n=8 and n=15 for adenovirus-GFP and adenovirus-TGFβ, respectively. **P<0.01. Mice were infected with 1×10^8 pfu adenovirus particles expressing control (GFP) or active TGFβ1 by tracheal instillation. On day 21 all animals began treatment every 4th day with either vehicle (Methocel/saline) or 3.0 mg/kg of C75. Mice were sacrificed on day 39 and processed for qPCR expression of connective tissue growth factor (CTGF), alpha smooth muscle actin (α-SMA), and collagen Iα1 (Col Iα1). Data reflect mean+/−SEM of n=8 and n=15 for adenovirus-GFP and adenovirus-TGFβ, respectively. *P<0.05, **P<0.01.

AKR-2B cells [5] = experiment: In vitro cell proliferation (MTT assay and cell counts), AKR-2B; type: cell-based, murine; settings: C75 3 μM, 0.1% FBS or 10% FBS
Description: (§3) Murine fibroblasts (AKR-2B) and human lung fibroblasts (MRCS) were seeded at 2.5×10^3 or 1×10^4 cells/96 well plate, respectively. AKR-2B cells were seeded in medium containing 10% DMEM/FBS, and MRCS cells were seeded in medium containing 10% EMEM/FBS. 24 hours after seeding, the medium was removed and replaced with DMEM or EMEM containing vehicle (0.1% DMSO), or C75 (3 μM) either in 10%, 0.1%, or 0% FBS for 24 hours prior to MTT assay (FIG. 6A). Absorbance was measured at 570 nm. Results represent mean±SEM from three independent experiments
as §3, with “1.0×10^4 cells/well in 24” for “2.5×10^3 or 1×10^4 cells/96”, “plates for 24 hours.” for “plate, respectively.”, “determining cell counts following an additional 24 hour and 48 hour incubation” for “MTT assay”, “6B).” for “6A). Absorbance was measured at 570 nm.”, “experiments.” for “experiments”

MRCS cells [6] = experiment: Scratch assay (cell migration), MRCS; type: cell-based, human; settings: C75 3 μM, TGFβ 10 ng/ml, 24 hours
Description: (§4) Murine fibroblasts (AKR-2B) and human lung fibroblasts (MRCS) were treated for 24 hours with vehicle (0.025% DMSO), TGFβ (10 ng/ml), or both TGFβ (10 ng/ml) and C75 (3 μM). Following 24 hours of treatment, culture plates were manually scratched. TGFβ increased cell migration, but inhibition of FASN activity with C75 suppressed TGFβ induced cell migration (FIG. 4C). Data are representative of 3 separate experiments.

AKR-2B cells [7] = experiment: Soft agar colony formation assay; type: cell-based, murine; settings: 0, 0.3, 1, 3, or 10 μM C75, TGFβ 10 ng/ml, 7 days growth, dose dependent
Description: Murine fibroblasts (AKR-2B) were treated for 24 hours with vehicle (0.025% DMSO) or C75 (FASN inhibitor, 3 μM) in the presence or absence of TGFβ (10 ng/ml), and 0, 0.3, 1, 3, or 10 μM C75. Following 7 days growth, cells were subjected to soft agar colony formation assays. TGFβ increased colony formation, but inhibition of FASN activity with C75 suppressed TGFβ induced colony formation in a dose dependent manner (FIG. 4B; *p-value<0.05, **p-value<0.01). Data reflect the mean+/−standard deviation of triplicate wells from 3 experiments.
Murine fibroblasts (AKR-2B) were transfected with either a nontargeting control siRNA (60 nmol/L) or with FASN-targeting siRNA (60 nmol/L). After 72 hours of cultivation, the transient transfectants were stimulated in the absence or presence of 10 ng/ml TGFβ for 24 hours. Following 7 days growth, cells were subjected to soft agar colony formation assays. TGFβ increased colony formation, but inhibition of FASN activity with FASN-targeting siRNA suppressed TGFβ induced colony formation (FIG. 5B; **p-value<0.01). Data reflect the mean standard deviation of triplicate wells from 3 experiments.

[8] = Blood inflammatory cells in bleomycin or saline challenged mice; type: in vivo, C57BL/6 mice; settings: 3.0 mg/kg C75 every 4th day from day 14; blood at days 0, 14, and 28
Description: (§5) C57BL/6 mice were intratracheally treated with an equal volume of saline (control) or bleomycin (BLM; 0.075 U). On day 14 all animals began treatment every 4th day with either vehicle (Methocel/saline) or 3.0 mg/kg of C75. Blood samples were obtained at days 0, 14, and 28 from the facial vein of unanesthetized animals and assessed for effect on inflammatory cells. Quantification of lymphocytes, monocytes, and neutrophils were measured using a VetScan HM5 Analyzer (FIG. 7B). Data are presented as mean+/−SEM of n=5.

FN, CTGF, and Col I = experiment: qPCR of profibrotic genes in lung tissue of bleomycin challenged mice; type: in vivo; settings: 0.03, 0.3, or 3 mg/kg C75 intraperitoneal every 4th day from day 14, lung harvested day 28, dose dependent
Description: Mice were challenged with bleomycin or vehicle (methocel/0.1% DMSO), and every 4th day, beginning 14 days following initial bleomycin insult, were treated by intraperitoneal injection with vehicle, 0.03 mg/kg, 0.3 mg/kg, or 3 mg/kg C75. Murine lung tissue was harvested on day 28 and RNA was obtained. qPCR was performed using primers specific for FN, CTGF, and Col I.
Data reflect mean standard deviation from lungs of n=5 (control, bleomycin, 0.03 mg/kg C75), 7 (0.3 mg/kg C75), or 8 (3 mg/kg C75) animals.

[9] = tested on: profibrotic TGFβ signaling; experiment: Western blot of TGFβ induced profibrotic proteins in AKR-2B fibroblasts; type: cell-based, murine; settings: C75 3 μM, TGFβ 10 ng/ml, 24 hours
Description: (§6) Murine fibroblasts (AKR-2B) and human lung fibroblasts (MRCS) were treated for 24 hours with vehicle (0.025% DMSO) or C75 (FASN inhibitor, 3 μM) in the presence or absence of TGFβ (10 ng/ml). Proteins were obtained from treated and control cells. Protein samples were Western blotted for FASN, Col I, Col IV, FN, CTGF, and pSmad3, and Western blotted for GAPDH as a loading control. TGFβ increased expression of FASN, Col I, Col IV, FN, CTGF, and pSmad3, but inhibition of FASN activity with C75 suppressed TGFβ induced Col I, Col IV, and FN expression (FIG. 4A).
as §1, with “FASN-targeting” for “Smad2/3-targeting”, “Col I, Col IV, FN, CTGF, and” for “pSmad2,”, “pSmad3,” for “pSmad3, and connective tissue growth factor (CTGF),”, “control. TGFβ increased expression of FASN, Col I, Col IV, FN, CTGF, and pSmad3, but inhibition of FASN activity with FASN-targeting siRNA suppressed TGFβ induced Col I, Col IV, and FN expression (FIG. 5A).” for “control.”

MRCS cells [10] = experiment: In vitro cell proliferation (MTT assay and cell counts), MRCS; type: cell-based, human; settings: C75 3 μM, FBS free or 10% FBS
Description: as §3
as §3, with “1.0×10^4 cells/well in 24” for “2.5×10^3 or 1×10^4 cells/96”, “plates for 24 hours.” for “plate, respectively.”, “determining cell counts following an additional 24 hour and 48 hour incubation” for “MTT assay”, “6B).” for “6A). Absorbance was measured at 570 nm.”, “experiments.” for “experiments”

AKR-2B cells [11] = experiment: Scratch assay (cell migration), AKR-2B; type: cell-based, murine; settings: C75 3 μM, TGFβ 10 ng/ml, 24 hours
Description: as §4
Murine (AKR-2B) lung fibroblasts were transfected with either a nontargeting control siRNA (60 nmol/L) or with FASN-targeting siRNA (60 nmol/L). After 72 hours of cultivation, the transient transfectants were stimulated in the absence or presence of 10 ng/ml TGFβ for 24 hours. Following 24 hours of treatment, culture plates were manually scratched. TGFβ increased cell migration, but inhibition of FASN activity with FASN-targeting siRNA suppressed TGFβ induced cell migration (FIG. 5C). Data are representative of 3 separate experiments.

[12] = Serum liver enzymes in bleomycin or saline challenged mice; type: in vivo, C57BL/6 mice; settings: 3.0 mg/kg C75 every 4th day from day 14; blood at days 0, 14, and 28
Description: as §5, with “liver enzymes. Serum levels (U/L, units per liter; g/dL, grams per deciliter)” for “inflammatory cells. Quantification”, “alkaline phosphatase (ALP), alanine aminotransferase (ALT),” for “lymphocytes, monocytes,”, “albumin” for “neutrophils”, “determined” for “measured”, “Piccolo Xpress Chemistry” for “VetScan HM5”, “7A).” for “7B).”

[13] = tested on: profibrotic TGFβ signaling; experiment: Western blot of TGFβ induced profibrotic proteins in MRCS lung fibroblasts; type: cell-based, human; settings: C75 3 μM, TGFβ 10 ng/ml, 24 hours
Description: as §6
as §1, with “FASN-targeting” for “Smad2/3-targeting”, “Col I, Col IV, FN, CTGF, and” for “pSmad2,”, “pSmad3,” for “pSmad3, and connective tissue growth factor (CTGF),”, “control. TGFβ increased expression of FASN, Col I, Col IV, FN, CTGF, and pSmad3, but inhibition of FASN activity with FASN-targeting siRNA suppressed TGFβ induced Col I, Col IV, and FN expression (FIG. 5A).” for “control.”

| inflammatory cell recruitment (lymphocytes, monocytes, neutrophils) [8] | Compound | TGFβ induced FASN expression (FASN [1]) | TGFβ induced FASN expression (FASN [2]) | lung gas exchange (oxygen saturation, SpO2) [3] | lung function [4] | in vitro cell proliferation (OD570, cell counts) (AKR-2B cells [5]) | TGFβ induced cell migration (MRCS cells [6]) | TGFβ induced colony formation (AKR-2B cells [7]) | FN, CTGF, and Col I expression (qPCR, lung tissue) (FN, CTGF, and Col I) | TGFβ induced Col I, Col IV, and FN expression [9] | in vitro cell proliferation (OD570, cell counts) (MRCS cells [10]) | TGFβ induced cell migration (AKR-2B cells [11]) | murine liver enzymes (serum ALP, ALT, albumin) [12] | TGFβ induced Col I, Col IV, and FN expression [13] |
| --- | --- | --- | --- | --- | --- | --- | --- | --- | --- | --- | --- | --- | --- | --- |
|  | Torin | abrogated | abrogated |  |  |  |  |  |  |  |  |  |  |  |
| no effect | C=C1C(=O)OC(CCCCCCCC)C1C(=O)O (centres unmarked) [C75] |  |  | stabilized | stabilizes lung function | does not inhibit | suppressed | suppressed | reduced | suppressed | does not inhibit | suppressed | no effect | suppressed |

Source: patent US12280036B2, “Using fatty acid synthase inhibitors to treat fibrosis” (Mayo Foundation for Medical Education and Research, priority 2016, dated 2025)
